SMILES strings stand for the structures. Where “and” joins values, the source holds several entries; their conditions need not be identical. Identical values can stand only once.

In one assay the target is T1, CDK2/CycE (Homo sapiens, UniProt P24941).
T1 construct: GST; purchased ProQinase GmbH (Freiburg, Germany); host or cells: insect cells (Sf9)
The assay can be described thus: CDK2/CycE kinase assay (TR-FRET). The settings on record: avg, read-out: CDK2 avg (IC50 [mol/l]). The assay is classed as biochemical. In a few lines:
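Read-out is a TR-FRET 665/620 nm emission ratio from EDTA-stopped reactions detected with anti-pRB(pSer807/pSer811), Eu-labelled anti-mouse IgG and streptavidin-XL665, scaled between no-enzyme and uninhibited wells. Reaction: Sf9-expressed GST-CDK2/GST-CycE, 15 min compound preincubation, 10 μM ATP, 0.75 μM biotin-peptide, 25 min, 22° C., pH 8.0 Tris buffer.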
On the technique in general: Time-resolved FRET reads energy transfer from a long-lived donor to a nearby acceptor.

Assay [1] has as its system human cervical tumor cell line HeLa (ATCC CCL-2). The assay can be described thus: SAC-Formation - Paclitaxel-Induced Assay. The class given is cell-based. The settings on record: Homo sapiens, HeLa, 24 h, HeLa cells, paclitaxel 0.05 μM, test range 0.005 μM-20 μM, read-out: IC50 [mol/l] SAC-Formation - Paclitaxel-Induced Assay. The method in brief: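 Read-out is high-content imaging of anti-phospho-H3 Ser10 (mitosis) and Hoechst 33342 (DNA, cell number), with decreased mitotic fraction marking checkpoint breakthrough. Compounds (0.005–20 μM) and 0.05 μM paclitaxel co-added to overnight-plated HeLa for 24 h at 37° C; four-parameter Hill fit.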

Turning to `Cc1nsc(Nc2cnc(C(F)(F)F)cn2)c1C(=O)Nc1ccc(OCCNC(=O)OC(C)(C)C)nc1` [Example 192, tert-butyl {2-[(5-{[(3-methyl-5-{[5-(trifluoromethyl)pyrazin-2-yl]amino}-1,2-thiazol-4-yl)carbonyl]amino}pyridin-2-yl)oxy]ethyl}carbamate], the IC50 was more than 20000 nM at CDK2/CycE and 180 nM in assay [1].

As to `Cc1nsc(Nc2cncc(C(F)(F)F)n2)c1C(=O)Nc1ccc(C(=O)OC(C)(C)C)cc1` [Example 193, tert-butyl tert-butyl 4-{[(3-methyl-5-{[6-(trifluoromethyl)pyrazin-2-yl]amino}-1,2-thiazol-4-yl)carbonyl]amino}benzoate], the IC50 came to 12000 nM at CDK2/CycE and 510 nM in assay [1].

Turning to `Cc1nsc(Nc2cncc(C(F)(F)F)n2)c1C(=O)Nc1cccc(S(C)(=O)=O)c1` [Example 194, 3-methyl-N-[3-(methylsulfonyl)phenyl]-5-{[6-(trifluoromethyl)pyrazin-2-yl]amino}-1,2-thiazole-4-carboxamide], the IC50 at CDK2/CycE is > 20000 nM and 7800 nM; in assay [1], 290 nM.

With `Cc1nsc(Nc2cnc(C(F)(F)F)cn2)c1C(=O)Nc1cccc(S(C)(=O)=O)c1` [Example 195, 3-methyl-N-[3-(methylsulfonyl)phenyl]-5-{[5-(trifluoromethyl)pyrazin-2-yl]amino}-1,2-thiazole-4-carboxamide], the figures for the IC50 (on CDK2/CycE; in assay [1]) were more than 20000 nM and 520 nM, respectively.

For `Cc1nsc(Nc2cncc(C(F)(F)F)n2)c1C(=O)Nc1ccc(OCCN)nc1` [Example 196, N-[6-(2-aminoethoxy)pyridin-3-yl]-3-methyl-5-{[6-(trifluoromethyl)pyrazin-2-yl]amino}-1,2-thiazole-4-carboxamide], the IC50 is more than 20000 nM at CDK2/CycE and 1300 nM in assay [1].

As to `Cc1nsc(Nc2cnc(C(F)(F)F)cn2)c1C(=O)Nc1ccc(OCCN)nc1` [Example 197, N-[6-(2-aminoethoxy)pyridin-3-yl]-3-methyl-5-{[5-(trifluoromethyl)pyrazin-2-yl]amino}-1,2-thiazole-4-carboxamide], the IC50 at CDK2/CycE was more than 20000 nM; in assay [1], 600 nM.

Consider `Cc1nsc(Nc2cnc3ccccc3n2)c1C(=O)Nc1ccc(OCCC(=O)OC(C)(C)C)nc1` [Example 198, tert-butyl 3-{[5-({[3-methyl-5-(quinoxalin-2-ylamino)-1,2-thiazol-4-yl]carbonyl}amino)pyridin-2-yl]oxy}propanoate], for which the results for the IC50 (at CDK2/CycE; in assay [1]) were more than 20000 nM and 740 nM, respectively.

`Cc1nsc(Nc2ccc(C#N)cn2)c1C(=O)Nc1ccc(OCCC(=O)OC(C)(C)C)nc1` [Example 199, tert-butyl 3-({5-[({5-[(5-cyanopyridin-2-yl)amino]-3-methyl-1,2-thiazol-4-yl}carbonyl)amino]pyridin-2-yl}oxy)propanoate]: the IC50 is more than 20000 nM at CDK2/CycE and 110 nM in assay [1].

In the case of `Cc1nsc(Nc2cc(C#N)ccn2)c1C(=O)Nc1ccc(OCCC(=O)OC(C)(C)C)nc1` [Example 200, tert-butyl 3-({5-[({5-[(4-cyanopyridin-2-yl)amino]-3-methyl-1,2-thiazol-4-yl}carbonyl)amino]pyridin-2-yl}oxy)propanoate], the IC50 is more than 20000 nM at CDK2/CycE and 1200 nM in assay [1].

As to `Cc1nsc(Nc2cnc3ccccc3n2)c1C(=O)Nc1ccc(C(N)=O)c(F)c1` [Example 201, N-(4-carbamoyl-3-fluorophenyl)-3-methyl-5-(quinoxalin-2-ylamino)-1,2-thiazole-4-carboxamide], the IC50 is more than 20000 nM on CDK2/CycE and 220 nM in assay [1].

On to `Cc1nsc(Nc2cnc3ccccc3n2)c1C(=O)Nc1ccc(F)c(C(N)=O)c1` [Example 202, N-(3-carbamoyl-4-fluorophenyl)-3-methyl-5-(quinoxalin-2-ylamino)-1,2-thiazole-4-carboxamide], for which the IC50 at CDK2/CycE was more than 20000 nM; in assay [1] it was 130 nM.

Regarding `Cc1nsc(Nc2ccc(C#N)cn2)c1C(=O)Nc1ccc(F)c(C(N)=O)c1` [Example 203, N-(3-carbamoyl-4-fluorophenyl)-5-[(5-cyanopyridin-2-yl)amino]-3-methyl-1,2-thiazole-4-carboxamide], the IC50 is more than 20000 nM at CDK2/CycE and 8500 nM in assay [1].

Turning to `Cc1nsc(Nc2cncc(C(F)(F)F)n2)c1C(=O)Nc1ccc(F)c(C(N)=O)c1` [Example 204, N-(3-carbamoyl-4-fluorophenyl)-3-methyl-5-{[6-(trifluoromethyl)pyrazin-2-yl]amino}-1,2-thiazole-4-carboxamide], the IC50 is more than 20000 nM at CDK2/CycE and 450 nM in assay [1].

For `CC(=O)Nc1cc(NC(=O)c2c(C)nsc2Nc2cnccn2)ccc1F` [Example 205, N-(3-acetamido-4-fluorophenyl)-3-methyl-5-(pyrazin-2-ylamino)-1,2-thiazole-4-carboxamide], the IC50 was more than 20000 nM at CDK2/CycE and 20000 nM in assay [1].

As for `CC(=O)Nc1cc(NC(=O)c2c(C)nsc2Nc2cnc(C(F)(F)F)cn2)ccc1F` [Example 206, N-(3-acetamido-4-fluorophenyl)-3-methyl-5-{[5-(trifluoromethyl)pyrazin-2-yl]amino}-1,2-thiazole-4-carboxamide], the IC50 at CDK2/CycE is more than 20000 nM; in assay [1], 75 nM.

Regarding `CNC(=O)c1ccc(NC(=O)c2c(C)nsc2Nc2cnc3ccccc3n2)cc1F` [Example 207, N-[3-fluoro-4-(methylcarbamoyl)phenyl]-3-methyl-5-(quinoxalin-2-ylamino)-1,2-thiazole-4-carboxamide], the IC50 is more than 20000 nM at CDK2/CycE and 76 nM in assay [1].

Take `CNC(=O)c1ccc(NC(=O)c2c(C)nsc2Nc2ccc(C#N)cn2)cc1F` [Example 208, 5-[(5-cyanopyridin-2-yl)amino]-N-[3-fluoro-4-(methylcarbamoyl)phenyl]-3-methyl-1,2-thiazole-4-carboxamide]: the IC50 on CDK2/CycE is more than 20000 nM; in assay [1], 41 nM.

As for `Cc1nsc(Nc2cncc(C(F)(F)F)n2)c1C(=O)Nc1ccc(OCCCN)nc1` [Example 209, N-[6-(3-aminopropoxy)pyridin-3-yl]-3-methyl-5-{[6-(trifluoromethyl)pyrazin-2-yl]amino}-1,2-thiazole-4-carboxamide], the results for the IC50 (at CDK2/CycE; in assay [1]) were more than 20000 nM and 2300 nM, respectively.

`CNS(=O)(=O)c1ccc(NC(=O)c2c(C)nsc2Nc2cc(C#N)ccn2)cc1` [Example 210, 5-[(4-cyanopyridin-2-yl)amino]-3-methyl-N-[4-(methylsulfamoyl)phenyl]-1,2-thiazole-4-carboxamide]: the IC50 on CDK2/CycE is more than 20000 nM; in assay [1], 7700 nM.

As to `CNS(=O)(=O)c1ccc(NC(=O)c2c(C)nsc2Nc2cncc(C(F)(F)F)n2)cc1` [Example 211, 3-methyl-N-[4-(methylsulfamoyl)phenyl]-5-{[6-(trifluoromethyl)pyrazin-2-yl]amino}-1,2-thiazole-4-carboxamide], the IC50 on CDK2/CycE turned out to be 15000 nM; in assay [1], 47 nM.

`CNS(=O)(=O)c1ccc(NC(=O)c2c(C)nsc2Nc2cnc(C(F)(F)F)cn2)cc1` [Example 212, 3-methyl-N-[4-(methylsulfamoyl)phenyl]-5-{[5-(trifluoromethyl)pyrazin-2-yl]amino}-1,2-thiazole-4-carboxamide]: the IC50 was more than 20000 nM on CDK2/CycE and 4100 nM in assay [1].

The values are drawn from patent publication US20170334899A1, “AMINO-SUBSTITUTED ISOTHIAZOLES” (Bayer Pharma Aktiengesellschaft, priority 2014, published 2017).
